In patent publication US11726083B2, “Method for testing drug response of cardiomyocytes” (Myoridge Co. Ltd., priority 2017, dated 2023):
Like-named read-outs stand apart in the source and are kept apart here.

System: cardiomyocytes prepared by inducing differentiation of a human iPS cell line (253G1)
Details: for rate of change in heart rate / rate of change in Ca^2+ duration: 100% = no change
[1] = sample 5M: 300 μM, no hemoglobin, liquid-surface distance 6.67 mm
[2] = sample 5N: 300 μM, 2.0% by mass of hemoglobin, liquid-surface distance 1.0 mm
[3] = sample 5P: 500 μM, 2.0% by mass of hemoglobin, liquid-surface distance 1.0 mm
[4] = sample 2A: 100 nM, culture medium not containing hemoglobin, liquid-surface distance 6.67 mm
[5] = sample 2C: 100 nM, 0.5 mass % hemoglobin, liquid-surface distance 6.67 mm
[6] = sample 2D: 1000 nM, 0.5 mass % hemoglobin, liquid-surface distance 6.67 mm
[7] = sample 2E: 100 nM, 1.0 mass % hemoglobin, liquid-surface distance 6.67 mm
[8] = sample 2F: 1000 nM, 1.0 mass % hemoglobin, liquid-surface distance 6.67 mm
[9] = sample 3A: 100 nM, liquid-surface distance 8.33 mm
[10] = sample 3C: 100 nM, liquid-surface distance 6.67 mm
[11] = sample 3E: 100 nM, liquid-surface distance 5.00 mm
[12] = sample 3G: 100 nM, liquid-surface distance 3.33 mm
[13] = sample 3H: 1000 nM, liquid-surface distance 3.33 mm
[14] = sample 3I: 100 nM, liquid-surface distance 1.67 mm
[15] = sample 3J: 1000 nM, liquid-surface distance 1.67 mm
[16] = sample 4A: 100 nM, control container (polystyrene), liquid-surface distance 6.67 mm
[17] = sample 4C: 100 nM, oxygen-permeable container (VECELL 96-well plate), liquid-surface distance 6.67 mm

Compound: Cc1[nH]c(=O)c(C#N)cc1-c1ccncc1 [milrinone]
- expected drug response (tachycardic response) [1]: not detected
- pulsation (pulsation arrest) [1]: did not stop
- rate of change in heart rate [1]: 79%
- expected drug response [2]: detected
- pulsation (pulsation arrest) [2]: did not stop
- rate of change in heart rate [2]: 118%
- pulsation (pulsation arrest) (sample 5O: 500 μM, no hemoglobin, liquid-surface distance 6.67 mm): stopped at a high frequency
- expected drug response (tachycardic response) [3]: detected
- pulsation (pulsation arrest) [3]: did not stop
- rate of change in heart rate [3]: 154%

Compound: hemoglobin: bovine hemoglobin (Nacalai tesque 17553-92), oxygen carrier added to the culture medium
- occurrence of the pulsation arrest of the cardiomyocytes during the drug response testing (0.5 or 1.0 mass % hemoglobin added to the culture medium, isoproterenol 100/1000 nM, liquid-surface distance 6.67 mm (FIG. 3)): suppressed

Compound: CC(C)(C)c1ccc(C(O)CCCN2CCC(C(O)(c3ccccc3)c3ccccc3)CC2)cc1 (stereo not shown) [terfenadine]
- pulsation (pulsation arrest) (sample 5I: 0.1 μM, no hemoglobin, liquid-surface distance 6.67 mm): did not stop
- pulsation (pulsation arrest) (sample 5J: 0.1 μM, 0.5% by mass of hemoglobin, liquid-surface distance 1.67 mm): did not stop
- pulsation (pulsation arrest) (sample 5K: 0.7 μM, no hemoglobin, liquid-surface distance 6.67 mm): stopped at a high frequency
- pulsation (pulsation arrest) (sample 5L: 0.7 μM, 0.5% by mass of hemoglobin, liquid-surface distance 1.67 mm): did not stop
- rate of change in Ca^2+ duration (sample 6A: 0.3 μM, 0.5% by mass of hemoglobin, liquid-surface distance 1.67 mm): about 135%
- rate of change in Ca^2+ duration (sample 6B: 0.5 μM, 0.5% by mass of hemoglobin, liquid-surface distance 1.67 mm): about 170%

Compound: CC(C)NCC(O)c1ccc(O)c(O)c1 (stereo not shown) [isoproterenol]
- expected drug response (tachycardic response) [4]: detected
- pulsation (pulsation arrest) [4]: did not stop
- pulsation (pulsation arrest) (sample 2B: 1000 nM, culture medium not containing hemoglobin, liquid-surface distance 6.67 mm): stopped at a high frequency
- expected drug response [5]: detected
- pulsation (pulsation arrest) [5]: did not stop
- expected drug response [6]: detected
- pulsation (pulsation arrest) [6]: did not stop at all
- expected drug response [7]: detected
- pulsation (pulsation arrest) [7]: did not stop
- expected drug response [8]: detected
- pulsation (pulsation arrest) [8]: did not stop at all
- expected drug response (tachycardic response) [9]: detected
- pulsation (pulsation arrest) [9]: did not stop
- pulsation (pulsation arrest) (sample 3B: 1000 nM, liquid-surface distance 8.33 mm): stopped at a high frequency
- expected drug response [10]: detected
- pulsation (pulsation arrest) [10]: did not stop
- pulsation (pulsation arrest) (sample 3D: 1000 nM, liquid-surface distance 6.67 mm): stopped at a high frequency
- expected drug response [11]: detected
- pulsation (pulsation arrest) [11]: did not stop
- frequency of the occurrence of the pulsation arrest (sample 3F: 1000 nM, liquid-surface distance 5.00 mm): about 50%
- expected drug response [12]: detected
- pulsation (pulsation arrest) [12]: did not stop
- expected drug response [13]: detected
- pulsation (pulsation arrest) [13]: hardly stopped
- expected drug response [14]: detected
- pulsation (pulsation arrest) [14]: did not stop
- expected drug response [15]: detected
- pulsation (pulsation arrest) [15]: did not stop at all
- expected drug response (tachycardic response) [16]: detected
- pulsation (pulsation arrest) [16]: did not stop
- pulsation (pulsation arrest) (sample 4B: 1000 nM, control container (polystyrene), liquid-surface distance 6.67 mm): stopped at a high frequency
- expected drug response [17]: detected
- pulsation (pulsation arrest) [17]: did not stop
- pulsation (pulsation arrest) (sample 4D: 1000 nM, oxygen-permeable container (VECELL 96-well plate), liquid-surface distance 6.67 mm): stopped only at a low frequency

Compound: Cc1cccc(CCN2CCC(C(=O)c3ccc(NS(C)(=O)=O)cc3)CC2)n1 [E-4031]
- pulsation (pulsation arrest) (sample 5E: 0.1 μM, no hemoglobin, liquid-surface distance 6.67 mm): did not stop
- pulsation (pulsation arrest) (sample 5F: 0.1 μM, 0.5% by mass of hemoglobin, liquid-surface distance 1.67 mm): did not stop
- pulsation (pulsation arrest) (sample 5G: 0.3 μM, no hemoglobin, liquid-surface distance 6.67 mm): stopped at a high frequency
- pulsation (pulsation arrest) (sample 5H: 0.3 μM, 0.5% by mass of hemoglobin, liquid-surface distance 1.67 mm): did not stop
